Key:
Test in all cases: Glasshouse herbicide test, pre- and post-emergence, percentage damage
Format in all cases: in vivo
Lolium perenne (LOLPE) = conditions: 250 g/h, evaluated after 13 days, percentage damage on five point scale; for LOLPE POST: post-emergence; for LOLPE PRE: pre-emergence
Procedure: (§1) Seeds of a variety of test species are sown in standard soil in pots (Lolium perenne (LOLPE), Setaria faberi (SETFA), Alopecurus myosuroides (ALOMY), Echinochloa crus-galli (ECHCG), Avena fatua (AVEFA)). After cultivation for one day (pre-emergence) or after 8 days cultivation (post-emergence) under controlled conditions in a glasshouse (at 24/16° C., day/night; 14 hours light; 65% humidity), the plants are sprayed with an aqueous spray solution derived from the formulation of the technical active ingredient in acetone/water (50:50) solution containing 0.5% Tween 20 (polyoxyethelyene sorbitan monolaurate, CAS RN 9005-64-5). Compounds are applied at […]. The test plants are then grown in a glasshouse under controlled conditions in a glasshouse (at 24/16° C., day/night; 14 hours light; 65% humidity) and watered twice daily. After 13 days for pre and post-emergence, the test is evaluated for the percentage damage caused to the plant. The biological activities are shown in the following table on a five point scale (5=80-100%; 4=60-79%; 3=40-59%; 2=20-39%; 1=0-19%).

Avena fatua (AVEFA) = conditions: 250 g/h, evaluated after 13 days, percentage damage on five point scale; for AVEFA POST: post-emergence; for AVEFA PRE: pre-emergence
Procedure: as §1

Setaria faberi (SETFA) = conditions: 250 g/h, evaluated after 13 days, percentage damage on five point scale; for SETFA POST: post-emergence; for SETFA PRE: pre-emergence
Procedure: as §1

[1] = system: Alopecurus myosuroides (ALOMY); conditions: 250 g/h, evaluated after 13 days, percentage damage on five point scale; for ALOMY POST: post-emergence; for ALOMY PRE: pre-emergence
Procedure: as §1

[2] = system: Echinochloa crus-galli (ECHCG); conditions: 250 g/h, evaluated after 13 days, percentage damage on five point scale; for ECHCG POST: post-emergence; for ECHCG PRE: pre-emergence
Procedure: as §1

| Compound | LOLPE POST (Lolium perenne (LOLPE)) | LOLPE PRE (Lolium perenne (LOLPE)) | AVEFA POST (Avena fatua (AVEFA)) | AVEFA PRE (Avena fatua (AVEFA)) | SETFA POST (Setaria faberi (SETFA)) | SETFA PRE (Setaria faberi (SETFA)) | ALOMY POST [1] | ALOMY PRE [1] | ECHCG POST [2] | ECHCG PRE [2] |
| --- | --- | --- | --- | --- | --- | --- | --- | --- | --- | --- |
| CC(=O)N1CCC2(CC1)CC(=O)C(c1c(C)cc(-c3ccc(F)cc3)cc1C)C(=O)C2 [Compound A12] | 5 (5=80-100%) | 5 (5=80-100%) | 5 (5=80-100%) | 4 (4=60-79%) | 5 (5=80-100%) | 5 (5=80-100%) | 5 (5=80-100%) | 5 (5=80-100%) | 5 (5=80-100%) | 5 (5=80-100%) |
| CC(=O)N1CCC2(CC1)CC(=O)C(c1c(C)cc(-c3ccc(C#N)cn3)cc1C)C(=O)C2 [Compound A14] | 5 (5=80-100%) | 5 (5=80-100%) | 5 (5=80-100%) | 5 (5=80-100%) | 5 (5=80-100%) | 5 (5=80-100%) | 5 (5=80-100%) | 5 (5=80-100%) |  | 5 (5=80-100%) |
| COc1cc(-c2ncc(F)cn2)cc(OC)c1C1C(=O)CC2(CCN(C(C)=O)CC2)CC1=O [Compound A15] | 5 (5=80-100%) | 5 (5=80-100%) | 5 (5=80-100%) | 5 (5=80-100%) | 5 (5=80-100%) | 5 (5=80-100%) | 5 (5=80-100%) | 5 (5=80-100%) | 5 (5=80-100%) | 5 (5=80-100%) |
| COc1cc(-c2ccc(C#N)cn2)cc(OC)c1C1C(=O)CC2(CCN(C(C)=O)CC2)CC1=O [Compound A16] | 4 (4=60-79%) | 3 (3=40-59%) | 5 (5=80-100%) | 4 (4=60-79%) | 5 (5=80-100%) | 4 (4=60-79%) | 5 (5=80-100%) | 1 (1=0-19%) |  | 5 (5=80-100%) |
| COc1cc(-c2ncc(F)cn2)cc(C)c1C1C(=O)CC2(CCN(C(C)=O)CC2)CC1=O [Compound A17] | 5 (5=80-100%) | 5 (5=80-100%) | 5 (5=80-100%) | 5 (5=80-100%) | 5 (5=80-100%) | 5 (5=80-100%) | 5 (5=80-100%) | 5 (5=80-100%) | 5 (5=80-100%) | 5 (5=80-100%) |
| COc1cc(-c2ccc(C#N)cn2)cc(C)c1C1C(=O)CC2(CCN(C(C)=O)CC2)CC1=O [Compound A18] | 5 (5=80-100%) | 5 (5=80-100%) | 5 (5=80-100%) | 5 (5=80-100%) | 5 (5=80-100%) | 5 (5=80-100%) | 5 (5=80-100%) | 4 (4=60-79%) | 5 (5=80-100%) | 5 (5=80-100%) |
| CC(=O)N1CCC2(CC1)CC(=O)C(c1c(C)cc(-n3cc(Cl)cn3)cc1C)C(=O)C2 [Compound A19] | 5 (5=80-100%) | 4 (4=60-79%) | 5 (5=80-100%) | 5 (5=80-100%) | 5 (5=80-100%) | 3 (3=40-59%) | 5 (5=80-100%) | 2 (2=20-39%) | 4 (4=60-79%) | 1 (1=0-19%) |
| COc1cc(-c2ccc(F)cc2)cc(OC)c1C1C(=O)CC2(CCN(C(C)=O)CC2)CC1=O [Compound A20] | 5 (5=80-100%) | 5 (5=80-100%) | 5 (5=80-100%) | 5 (5=80-100%) | 5 (5=80-100%) | 5 (5=80-100%) | 5 (5=80-100%) | 5 (5=80-100%) | 5 (5=80-100%) | 5 (5=80-100%) |
